Measured values reported in US20220241202A1, “METHOD AND VEHICLE FOR DELIVERING AGENTS ACROSS THE BLOOD-BRAIN BARRIER” (priority 2019, published 2022).
Substitutions are numbered along the chain they refer to. Numbers in names are those of the source.

How the values were obtained:
[1] = system: CAD cells; experiment: Western blot / dot blot analysis of GFP-72Q huntingtin^exon1 in EVs collected from CAD cells; type: cell-based
Procedure: (§1) Cell lines were transfected with the molecular chaperone CSPα and a GFP-tagged protein. CAD cells (catecholaminergic derived CNS cells) were the cell line utilized. Other cell lines, including patient-derived cell lines, may also be utilized. cDNAs encoding for myc-tagged CSPα or vector alone and GFP-72Q huntingtin^exon1 were transiently transfected with Lipofectamine™ 3000 (Invitrogen) in Opti-MEM™ medium. Media was changed to serum-free media 6 hours post-transfection. Media was collected 48 hours after transfection, spun at 300×g for 5 min to remove cell debris and evaluated without further processing by nanocyte tracking analysis, nanoscale flow cytometry analysis and dot blot analysis. For western blot analysis, EVs were isolated from the unfractionated media by exoquick precipitation solution (SBI) and solubilized in sample buffer. Following media collection, cell viability was determined using an XTT assay (New England Biolabs). When resveratrol was used, it was added to the serum-free media 6 hours post-transfection at the time of the media change.
(§2) Proteins were separated by SDS-PAGE and electrotransferred from polyacrylamide gels to nitrocellulose membrane (0.2 μm pore size). Membranes were blocked in tris-buffered saline (TBS) containing 0.1% Tween 20, 1% BSA and then incubated with primary antibody overnight at 4° C. The membranes were washed and incubated with horseradish peroxidase-coupled secondary antibody for about 2 hours at room temperature. Bound antibodies on the membranes were detected by incubation with Pierce chemiluminescent reagent and exposure to Cdigit, LiCor (Mandel). The chemiluminescent signals were quantified using image studio digits software (Mandel). For dot blots, 10 μl of unfractionated media was spotted on a nitrocellulose membrane, dried and the membrane was processed as described above.

[2] = system: CAD cells; experiment: Nanoscale flow cytometry of EVs secreted from CAD cells expressing GFP-72Q huntingtin^exon1; type: cell-based
Procedure: as §1
For NTA and nanoscale flow cytometry analysis, all samples were diluted 25 fold using 0.2× phosphate buffered saline that had been filtered twice through 0.2 μm filter. For NTA analysis, all samples were analyzed using the Nanosight LM10 (405 nm laser, 60 mW, software version 3.00064). Samples were analyzed in triplicate for 60 seconds per replicate with a count range of 20-100 particles per frame. A variety of NIST (Thermo Scientific 3000 Series) standards were analyzed, each the day prior to sample analysis. The system was cleaned between each sample and checked for any sample carryover using the PBS diluent. NTA measures EVs within a size range from about 30 nm to about 1,000 nm.
Samples were similarly prepared for nanoscale flow cytometry as for NTA. All samples were analyzed using the Apogee A50 flow cytometry platform. Light scatter was provided using the 405 nm laser (75 mW); GFP signal was generated using the 488 nm laser (50 mW, 535/35) and far red signal was generated using the 630 nm laser (75 mW, 680/35). All samples were analyzed for 60 seconds. Optimization was performed to insure single EVs were being analyzed and single events were triggered by light scatter only. The system was cleaned each day prior to sample analysis and a variety of silica and polystyrene standards (Apogee 1493 standards) processed for instrument set up and QC. The silica standards were used to assess the relative size range of EVs. Nanoscale flow cytometry measures EVs within a size range from about 100 nm to about 1,300 nm. […]

[3] = system: naive CAD cells; experiment: EV delivery of GFP-72Q huntingtin^exon1 cargo to naive recipient CAD cells (live cell fluorescence imaging); type: cell-based; settings: for GFP-72Q huntingtin^exon1 cargo / aggregates in recipient CAD cells after media application: conditioned media applied to naive cells, imaged 1-48 hours
Procedure: Images of live cells were taken with the EVOS FL Auto Imaging System. Images of donor cells were taken at the time of media collection. Images of recipient cells were taken between 1-48 hours. The intensity of the GFP-72Q huntingtin^exon1 varied among cells and a single slider was used until the on-screen brightness of the lowest intensity aggregate was satisfactory and used this setting to capture images in high-quality mode. Where indicated, after the 300×g for 5 minutes conditioned media spin to remove cell debris, 60 μl of Exo-Red (SBI) was incubated with 1 ml media containing EVs for 10 minutes at 37° C. to label the RNA EV cargo. 150 μl of exo-quick was added, the labelled EVs were placed on ice for 30 min and then centrifuged for 3 minutes at 20,000×g. The labelled EV pellet was resuspended in 1 ml of DMEM-F12 media and applied to target cells.

[4] = system: CAD cells; experiment: Screen of J proteins for EV-mediated export of misfolded huntingtin (western blot and nanoscale flow cytometry); type: cell-based; settings: cells expressing GFP-tagged 72Q huntingtin^exon1 and the J protein
Procedure: as §1, §2
Samples were similarly prepared for nanoscale flow cytometry as for NTA. All samples were analyzed using the Apogee A50 flow cytometry platform. Light scatter was provided using the 405 nm laser (75 mW); GFP signal was generated using the 488 nm laser (50 mW, 535/35) and far red signal was generated using the 630 nm laser (75 mW, 680/35). All samples were analyzed for 60 seconds. Optimization was performed to insure single EVs were being analyzed and single events were triggered by light scatter only. The system was cleaned each day prior to sample analysis and a variety of silica and polystyrene standards (Apogee 1493 standards) processed for instrument set up and QC. The silica standards were used to assess the relative size range of EVs. Nanoscale flow cytometry measures EVs within a size range from about 100 nm to about 1,300 nm.
To test whether other J proteins may also export misfolded proteins, several J proteins with reported links to neurodegeneration were screened for EV-mediated export activity. […] Alternative splicing of the DnaJB2 gene produces two isoforms, a DnaJB2short and a 42 kDa DnaJB2long isoform that undergoes C terminal geranylgeranylation. DnaJB2long was studied further. […] Extracellular milieu includes free floating co-chaperones in addition to EVs, and chaperones that adhere to EVs were expected to co-isolate with EVs. […] In fact, DnaJB11 as well as DnaJA1 were robustly secreted by CAD neurons under all conditions evaluated (FIG. 5C).

[5] = previously shown; cited from earlier work
[6] = presence of CSPα and 50 μM resveratrol

Oc1ccc(C=Cc2cc(O)cc(O)c2)cc1 [resveratrol, Resveratrol]
secretion of GFP-72Q huntingtin^exon1 and CSPα (western blot of EVs) ([1]; 50 μM resveratrol): reduced secretion of GFP-72Q huntingtin^exon1 but not CSPα
secretion of GFP-72Q huntingtin^exon1 mediated by CSPα and ANCL mutants ([1]; 50 μM resveratrol): reduced secretion of GFP-72Q huntingtin^exon1 mediated by CSPα, CSPαL115R and CSPαΔ116
GFP-72Q huntingtin^exon1-containing EVs ([2]; 50 μM resveratrol 6 hours following transfection): decreasing
total EVs exported by CAD cells ([2]; 50 μM resveratrol 6 hours following transfection, all conditions (vector, CSPα, CSPαL115R, CSPαΔ116)): increased total EVs exported by CAD cells in all conditions
mean size of vesicles ([2]; 50 μM resveratrol, all conditions): increased the mean size of vesicles
total EV secretion ([2]; 50 μM resveratrol, control, vector and CSPα-expressing cells): increases total EV secretion
CSPα-EV export of EVs containing GFP-72Q huntingtin^exon1 ([2]; 50 μM resveratrol, p<0.0001): significantly reduced
EVs containing GFP cargo within the 180-240 nm subpopulation [2, 6]: 0.53%
EVs containing GFP cargo within the <180 nm subpopulation [2, 6]: 0.03%
EVs containing GFP cargo within the >240 nm subpopulation [2, 6]: 0.78%
secretion of the 180-240 nm GFP-labelled EV pool ([2]; resveratrol concentration response): significantly reduced secretion of the 180-240 nm GFP-labelled EV pool in a concentration-dependent manner
GFP cargo in recipient cells ([3]; media produced from neurons treated with 50 μM resveratrol): GFP cargo was still detected in recipient cells

DnaJA1: related J protein
EV-mediated export of misfolded huntingtin [4]: did not export misfolded huntingtin

DnaJB1: related J protein
EV-mediated export of misfolded huntingtin [4]: did not export misfolded huntingtin

DnaJC13: related J protein
EV-mediated export of misfolded huntingtin [4]: did not export misfolded huntingtin

DnaJC19: related J protein
EV-mediated export of misfolded huntingtin [4]: did not export misfolded huntingtin

α-synuclein
mutant huntingtin export with increasing protein expression ([1]; western blot of EVs): did not result in mutant huntingtin export
GFP-72Q huntingtin^exon1 cargo / aggregates in recipient CAD cells after media application [3]: low levels of GFP signal at 24 hours

B1: CSPαL115R: CSPα with the human L115R mutation that causes ANCL (protein, UniProt Q9H3Z4 1-198, looked up, variant L115R)
DnaJ homolog subfamily C …: MADQRQRSLSTSGESLYHVLGLDKNATSDDIKKSYRKLALKYHPDKNPDNPEAADKFKEINNAHAILTDATKRNIYDKYGSLGLYVAEQFGEENVNTYFVLSSWWAKALFVFCGRLTCCYCCCCLCCCFNCCCGKCKPKAPEGEETEFYVSPEDLEAQLQSDEREATDTPIVIQPASATETTQLTADSHPSYHTDGFN
export of GFP-72Q huntingtin^exon1 [5]: promote export

B2: CSPαHPD-AAA: loss-of-function CSPα mutant that does not interact with Hsp70 ATPases (protein, UniProt Q9H3Z4 1-198, looked up, variant H43A P44A D45A)
DnaJ homolog subfamily C …: B1 DnaJ homolog subfamily C … with H43A, P44A, D45A, R115L
export of GFP-72Q huntingtin^exon1 [5]: does not
GFP-72Q huntingtin^exon1 cargo / aggregates in recipient CAD cells after media application [3]: low levels of GFP signal at 24 hours

B3: DnaJB2: DnaJ Heat Shock Protein Family (Hsp40) Member B2 (protein, UniProt P25686 2-321, looked up)
DnaJ homolog subfamily B …: ASYYEILDVPRSASADDIKKAYRRKALQWHPDKNPDNKEFAEKKFKEVAEAYEVLSDKHKREIYDRYGREGLTGTGTGPSRAEAGSGGPGFTFTFRSPEEVFREFFGSGDPFAELFDDLGPFSELQNRGSRHSGPFFTFSSSFPGHSDFSSSSFSFSPGAGAFRSVSTSTTFVQGRRITTRRIMENGQERVEVEEDGQLKSVTINGVPDDLALGLELSRREQQPSVTSRSGGTQVQQTPASCPLDSDLSEDEDLQLAMAYSLSEMEAAGKKPAGGREAQHRRQGRPKAQHQDPGLGGTQEGARGEATKRSPSPEEKASRC
EV-mediated export of misfolded huntingtin [4]: exports misfolded huntingtin in EVs

B4: DnaJC14: related J protein (protein, UniProt Q6Y2X3 1-702, looked up)
DnaJ homolog subfamily C …: MAQKHPGERGLYGAHHSGGASLRTLGPSVDPEIPSFSGLRDSAGTAPNGTRCLTEHSGPKHTQHPNPAHWLDPSHGPPGGPGPPRDAEDPDQSETSSEEESGVDQELSKENETGNQKDGNSFLSIPSACNCQGTPGIPEGPYSEGGNGSSSNFCHHCTSPALGEDELEEEYDDEESLKFPSDFSRVSSGKKPPSRRQRHRFPTKEDTREGGRRDPRSPGRHRLGRKRSQADKRKGLGLWGAEELCQLGQAGFWWLIELLVLVGEYVETCGHLIYACRQLKSSDLDLFRVWMGVWTGRLGGWAQVMFQFLSQGFYCGVGLFTRFLKLLGALLLLALALFLGFLQLGWRFLVGLGDRLGWRDKATWLFSWLDSPALQRCLTLLRDSRPWQRLVRIVQWGWLELPWVKQNINRQGNAPVASGRYCQPEEEVARLLTMAGVPEDELNPFHVLGVEATASDVELKKAYRQLAVMVHPDKNHHPRAEEAFKVLRAAWDIVSNAEKRKEYEMKRMAENELSRSVNEFLSKLQDDLKEAMNTMMCSRCQGKHRRFEMDREPKSARYCAECNRLHPAEEGDFWAESSMLGLKITYFALMDGKVYDITEWAGCQRVGISPDTHRVPYHISFGSRIPGTRGRQRATPDAPPADLQDFLSRIFQVPPGQMPNGNFFAAPQPAPGAAAASKPNSTVPKGEAKPKRRKKVRRPFQR
EV-mediated export of misfolded huntingtin [4]: did not export misfolded huntingtin

B5: CSPαΔ116: CSPα with the human L116Δ mutation that causes ANCL (protein, UniProt Q9H3Z4 1-198, looked up, variant L116*)
DnaJ homolog subfamily C …: MADQRQRSLSTSGESLYHVLGLDKNATSDDIKKSYRKLALKYHPDKNPDNPEAADKFKEINNAHAILTDATKRNIYDKYGSLGLYVAEQFGEENVNTYFVLSSWWAKALFVFCGLTCCYCCCCLCCCFNCCCGKCKPKAPEGEETEFYVSPEDLEAQLQSDEREATDTPIVIQPASATETTQLTADSHPSYHTDGFN
export of GFP-72Q huntingtin^exon1 [5]: promote export

B6: DnaJB11: related J protein (protein, UniProt Q9UBS4 23-358, looked up)
DnaJ homolog subfamily B …: GRDFYKILGVPRSASIKDIKKAYRKLALQLHPDRNPDDPQAQEKFQDLGAAYEVLSDSEKRKQYDTYGEEGLKDGHQSSHGDIFSHFFGDFGFMFGGTPRQQDRNIPRGSDIIVDLEVTLEEVYAGNFVEVVRNKPVARQAPGKRKCNCRQEMRTTQLGPGRFQMTQEVVCDECPNVKLVNEERTLEVEIEPGVRDGMEYPFIGEGEPHVDGEPGDLRFRIKVVKHPIFERRGDDLYTNVTISLVESLVGFEMDITHLDGHKVHISRDKITRPGAKLWKKGEGLPNFDNNNIKGSLIITFDVDFPKEQLTEEAREGIKQLLKQGSVQKVYNGLQGY
EV-mediated export of misfolded huntingtin [4]: did not export misfolded huntingtin
